Laboratory results: US6608082B1, “Treatment of erectile dysfunction using isoquinoline compound melanocortin receptor ligands” (Lion Bioscience AG, priority 1998, dated 2003)
Like-named read-outs stand apart in the source and are kept apart here. One block for each molecule: values may come before it.

Columns and labels:
MCR-4 = target: T1, MCR-4 (Homo sapiens, UniProt P32245); assay: Melanocortin receptor binding assay, competition with 125I-HP 467, HEK 293 cells expressing hMCR-4; conditions: for IC50: read-out: MC-4 IC50
T1 construct: expressed in transfected cells; host or cells: HEK 293
Method in brief: (§1)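 Intact-cell competition binding, 2.5 hr at 37 °C, in PBS/10% calf serum/1 mM CaCl2; hMCR-4 cells at 4×10^3 per tube, hMCR-1 cells at 2×10^4 per tube. Filtration on BSA/CaCl2-soaked GF/B, cold 50 mM Tris pH 7.4 washes, scintillation count.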

MCR-1 = target: T2, MCR-1 (Homo sapiens, UniProt Q01726); assay: Melanocortin receptor binding assay, competition with 125I-HP 467, HEK 293 cells expressing hMCR-1; conditions: for IC50: read-out: MC-1 IC50; for % Disp. MC-1 10 μM: displacement of 125I-HP 467 at 10 μM isoquinoline compound
T2 construct: expressed in transfected cells; host or cells: HEK 293
Method in brief: as §1

[1] = TRG 2405 section, inhibition of binding of 125I-HP 467, HEK 293 cells expressing MCR-4
[2] = TRG 2405 section, inhibition of binding of 125I-HP 467, HEK 293 cells expressing MCR-1
[3] = TRG 2406 and TRG 2407 libraries, inhibition of binding of 125I-HP 467
[4] = inhibition of binding of 125I-HP 467, HEK 293 cells expressing MCR-4, TRG 2414 library
[5] = inhibition of binding of 125I-HP 467, HEK 293 cells expressing MCR-1, TRG 2414 library
[6] = inhibition of binding of 125I-HP 467, HEK 293 cells expressing MCR-4
[7] = inhibition of binding of 125I-HP 467, HEK 293 cells expressing MCR-1
[8] = TRG 2408 and TRG 2409 libraries, inhibition of 125I-HP 467 binding

T2 sequence (Q01726 whole entry): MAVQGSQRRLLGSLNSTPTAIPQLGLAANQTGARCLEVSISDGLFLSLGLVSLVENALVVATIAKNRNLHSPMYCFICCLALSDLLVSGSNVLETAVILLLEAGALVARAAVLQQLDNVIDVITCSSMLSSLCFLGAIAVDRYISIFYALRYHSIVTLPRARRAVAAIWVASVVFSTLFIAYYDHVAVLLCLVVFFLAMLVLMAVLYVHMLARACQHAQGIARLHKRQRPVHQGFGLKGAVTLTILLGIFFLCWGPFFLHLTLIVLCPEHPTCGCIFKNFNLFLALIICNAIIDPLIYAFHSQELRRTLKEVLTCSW
T1 sequence (P32245 whole entry): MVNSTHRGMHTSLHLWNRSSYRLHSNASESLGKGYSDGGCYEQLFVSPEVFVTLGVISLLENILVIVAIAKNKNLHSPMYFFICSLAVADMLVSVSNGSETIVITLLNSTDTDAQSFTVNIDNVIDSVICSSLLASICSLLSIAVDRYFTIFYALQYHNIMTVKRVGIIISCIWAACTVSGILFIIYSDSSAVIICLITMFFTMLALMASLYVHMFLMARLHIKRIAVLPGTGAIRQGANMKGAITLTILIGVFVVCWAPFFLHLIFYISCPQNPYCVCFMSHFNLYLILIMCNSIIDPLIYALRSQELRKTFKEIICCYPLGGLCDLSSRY

Compound: NCCN1Cc2ccccc2C(CNCc2ccccc2O)C1c1ccc(Oc2ccccc2)cc1 (mixture of isomers) [TRG 2406-11]
IC50 (MCR-4; [3]): 7 µM
IC50 (MCR-1; [3]): 10.5 µM

Compound: COc1ccccc1CCNCC1c2ccccc2CN(CCCCC(N)CN)C1c1ccc(Cl)cc1Cl (mixture of isomers) [TRG 2414-9]
IC50 (MCR-4; [4]): 0.7 µM
IC50 (MCR-1; [5]): 1.1 µM

Compound: NCC(CCCCN1Cc2ccccc2C(CNCCc2ccc(Cl)cc2)C1c1cc(C(F)(F)F)cc(C(F)(F)F)c1)NCc1ccc(Br)cc1 (stereo not drawn) [TRG 2421-33]
IC50 (MCR-4; [6]): 8.36 µM
IC50 (MCR-1; [7]): 6.93 µM

Compound: CCNc1ccc(C2C(CNCCc3ccccc3)c3ccccc3CN2CCCC(CN)NCC2CC2CNCc2ccccc2)cc1 (stereo not drawn) [TRG 2420-6]
IC50 (MCR-4; [6]): 5.13 µM
IC50 (MCR-1; [7]): 0.103 µM

Compound: CNC(CN)CCCCN1Cc2ccccc2C(CNc2ccc(Cl)cc2)C1c1ccc(Cl)cc1Cl (stereo not drawn) [TRG 2407-8]
IC50 (MCR-4; [3]): 21.2 µM
IC50 (MCR-1; [3]): 10.9 µM

Compound: COc1ccccc1CCNCC1c2ccccc2CN(CCCCC(CN)NCC(C)c2ccc(CC(C)C)cc2)C1c1ccc(Oc2ccccc2)cc1 (stereo not drawn) [TRG 2414-132]
MC-4 IC50 (MCR-4; [4]): no fit
IC50 (MCR-1; [5]): 27.4 µM

Compound: CNC(CN)CN1Cc2ccccc2C(CNCc2ccccc2O)C1c1cccc(Oc2ccc(Cl)c(Cl)c2)c1 (stereo not drawn) [TRG 2406-3]
IC50 (MCR-4; [3]): 9.69 µM
IC50 (MCR-1; [3]): 12.3 µM

Compound: CCNc1ccc(C2C(CNCCc3ccccc3)c3ccccc3CN2CCCC(CN)NCc2ccccc2CN(CC)CC)cc1 (stereo not drawn) [TRG 2420-15]
IC50 (MCR-4; [6]): 1.37 µM
IC50 (MCR-1; [7]): 0.07 µM

Compound: CCNc1ccc(C2C(CN)c3ccccc3CN2CCCC(CN)NCCCCNCCc2ccccc2)cc1 (stereo not drawn) [TRG 2419-12]
IC50 (MCR-4; [6]): 16.7 µM
IC50 (MCR-1; [7]): 0.073 µM

Compound: COc1ccc(CCNCC2c3ccccc3CN(CCCCC(CN)NCC(C)c3ccc(CC(C)C)cc3)C2c2cc(C(F)(F)F)cc(C(F)(F)F)c2)cc1 (stereo not drawn) [TRG 2414-68]
IC50 (MCR-4; [4]): 17.7 µM
MC-1 IC50 (MCR-1; [5]): no fit

Compound: CCOc1ccc(CCNCC2c3ccccc3CN(CCCCC(CN)NCc3ccc(-c4ccccc4)cc3)C2c2cc(C(F)(F)F)cc(C(F)(F)F)c2)cc1 (stereo not drawn) [TRG 2421-25]
IC50 (MCR-4; [6]): 10.9 µM
IC50 (MCR-1; [7]): 10 µM

Compound: NCCN1Cc2ccccc2C(CNCc2ccccc2O)C1c1cccc(Oc2ccccc2)c1 (stereo not drawn) [TRG 2406-8]
IC50 (MCR-4; [3]): 5.67 µM
IC50 (MCR-1; [3]): 7.48 µM

Compound: COc1cccc(CCNCC2c3ccccc3CN(CCCCC(CN)NCc3ccc(C)cc3)C2c2cc(C(F)(F)F)cc(C(F)(F)F)c2)c1 (stereo not drawn) [TRG 2421-37]
IC50 (MCR-4; [6]): 0.84 µM
IC50 (MCR-1; [7]): 3.08 µM

Compound: CC(C)Cc1ccc(C(C)CNC(CN)CCCCN2Cc3ccccc3C(CNC3CCCCCC3)C2c2ccc(Cl)cc2Cl)cc1 (stereo not drawn) [TRG 2414-36]
IC50 (MCR-4; [4]): 9.92 µM
IC50 (MCR-1; [5]): 8.65 µM

Continued, values first:

IC50 (MCR-4; [1]): 12.4 µM
IC50 (MCR-1; [2]): 20 µM
% Disp. MC-1 10 μM (MCR-1; first of duplicate): 37.7%
% Disp. MC-1 10 μM (MCR-1; second of duplicate): 44.1%
Compound: CNC(CN)CN1Cc2ccccc2C(CNC2CCCCC2)C1c1cccc(O)c1 (stereo not drawn) [TRG 2405-133]

IC50 (MCR-4; [8]): 20.7 µM
IC50 (MCR-1; [8]): 0.69 µM
Compound: CCNc1ccc(C2C(CNC3CCCCC3)c3ccccc3CN2CCCC(CN)NC)cc1 (stereo not drawn) [TRG 2408-60]

IC50 (MCR-4; [6]): 1.59 µM
IC50 (MCR-1; [7]): 0.14 µM
Compound: CCNc1ccc(C2C(CNC3CCCCC3)c3ccccc3CN2CCCC(CN)NCCC2CCCCC2)cc1 (stereo not drawn) [TRG 2411-173]

IC50 (MCR-4; [8]): 6.1 µM
IC50 (MCR-1; [8]): 6.98 µM
Compound: CNC(CN)CCN1Cc2ccccc2C(CNC2CCCCC2)C1c1ccc(Cl)cc1Cl (stereo not drawn) [TRG 2408-100]

IC50 (MCR-4; [6]): 1.22 µM
IC50 (MCR-1; [7]): 0.11 µM
Compound: CCNc1ccc(C2C(CNCCc3ccccc3)c3ccccc3CN2CCCC(CN)NCCC2CCCCC2)cc1 (stereo not drawn) [TRG 2411-162]

IC50 (MCR-4; [8]): 38.7 µM
IC50 (MCR-1; [8]): 1.06 µM
Compound: CCNc1ccc(C2C(CNC3CCCCC3)c3ccccc3CN2CCCCC(CN)NCCN)cc1 (stereo not drawn) [TRG 2408-33]

IC50 (MCR-4; [4]): 8.94 µM
IC50 (MCR-1; [5]): 2.03 µM
Compound: NCC(CCCCN1Cc2ccccc2C(CNC2CCCCCC2)C1c1ccc(Oc2ccccc2)cc1)NCc1ccccc1 (stereo not drawn) [TRG 2414-155]

IC50 (MCR-4; [1]): 17.1 µM
IC50 (MCR-1; [2]): 7.48 µM
% Disp. MC-1 10 μM (MCR-1; first of duplicate): 57.2%
% Disp. MC-1 10 μM (MCR-1; second of duplicate): 51%
Compound: CNC(CN)CN1Cc2ccccc2C(CNC2CCCCC2)C1c1ccccn1 (stereo not drawn) [TRG 2405-111]
